The source of these data is patent US11478478B2, “2,3-disubstituted 1-acyl-4-amino-1,2,3,4-tetrahydroquinoline derivatives and their use as bromodomain inhibitors” (GLAXOSMITHKLINE INTELLECTUAL PROPERTY (NO.2) LIMITED, priority 2013, dated 2022).

One assay addresses T1, BRD4 BD2 (Homo sapiens, UniProt O60885, Y97A).
T1 construct: BRD4 (1-477) (Y97A) and (Y390A); made in house; host or cells: E. coli (pET15b vector)
Briefly: TR-FRET binding assay, BRD4 BD2 (BD1-mutated protein). To be noted: read-out: pIC50 in the BRD4 BD2 assay (converted). In outline: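 Displacement of Alexa Fluor647-labelled bromodomain ligand (at Kd) from 10 nM His-tagged BRD4 (1-477, Y97A) read by Eu-anti-His TR-FRET (665/615 ratio) in pH 7.4 HEPES buffer, 0.5% DMSO. Compound preincubated 30 min at rt, detection ≥30 min. pIC50 derived from four-parameter fit after normalisation to controls.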
Background: In TR-FRET formats the signal depends on donor and acceptor labels being close together.

Assay [1] deals with Bromodomains BRD2, BRD3, BRD4 and BRDT. Briefly: Binding of the fluoroligand to mutated versus non-mutated bromodomain. On the set-up: species or system Human. To be noted: single residue mutations in the acetyl lysine binding pocket. The method, then: Time Resolved Fluorescence Resonance Energy Transfer (TR-FRET) Assay Binding was assessed using a time resolved fluorescent resonance energy transfer binding assay. This utilises a 6 His purification tag at the N-terminal of the proteins as an epitope for an anti-6 His antibody labeled with Europium chelate (PerkinElmer AD0111) allowing binding of the Europium to the proteins which acts as the donor fluorophore. A small molecule, high affinity binder of the bromodomains BRD2, BRD3, BRD4 and BRDT has been labeled with Alexa Fluor647 (Reference Compound X) and this acts as the acceptor in the FRET pair.
The binding of the compounds of formula (I) to Bromodomains BRD2, BRD3, BRD4 and BRDT was assessed using mutated proteins to detect differential binding to either Binding Domain 1 (BD1) or Binding Domain 2 (BD2) on the bromodomain. These single residue mutations in the acetyl lysine binding pocket greatly lower the affinity of the fluoroligand (Reference Compound X) for the mutated domain (>1000 fold selective for the non-mutated domain). Therefore in the final assay conditions, binding of the fluoroligand to the mutated domain cannot be detected and subsequently the assay is suitable to determine the binding of compounds to the single non-mutated bromodomain. […]

Turning to `CC(=O)N1c2ccc(-c3nnc(C)s3)cc2[C@H](Nc2ncccn2)[C@@H](C)[C@@H]1C1CC1` [Example 590, 1-((2S,3R,4R)-2-cyclopropyl-3-methyl-6-(5-methyl-1,3,4-thiadiazol-2-yl)-4-(pyrimidin-2-ylamino)-3,4-dihydroquinolin-1(2H)-yl)ethanone], the IC50 at BRD4 BD2 is 100 nM.

For the compound `COc1ccc2c(c1)C(c1ccc(Cl)cc1)=N[C@@H](CC(=O)NCCCCCNC(=O)CCCCCC1(C)/C(=C/C=C/C=C/C3=[N+](CCCCS(=O)(=O)O)c4ccc(S(=O)(=O)O)cc4C3(C)C)N(CCCCS(=O)(=O)[O-])c3ccc(S(=O)(=O)O)cc31)c1nnc(C)n1-2` (some centres unmarked) [Reference Compound X], the “selectivity of the fluoroligand for the non-mutated domain over the mutated domain” value in assay [1] is reported as above 1000 fold.
